Experimental data: patent US20150104868A1, “Methods of Maintaining and Improving Biological Cell Function and Activity” (GARGILL INCORPORATED, priority 2012, published 2015)

Tested on: CRL 1730 HUVECs
Assay: Microarray transcriptomics of HUVEC (HGERT/HG, HG/NG)
Type: cell-based, human
[1] = HUVEC, 5 mM ERT + 30 mM glucose vs 30 mM glucose
[2] = Prostate cancer, 8MP signaling pathway
[3] = Prostate cancer, Calcium/calmodulin
[4] = Prostate cancer, Carbohydrate binding
[5] = Prostate cancer, DNA binding, second listing
[6] = Prostate cancer, ILK signaling (integrin linked kinase)
[7] = Prostate cancer, Reactive oxygen species
[8] = Prostate cancer, Tyrosine phosphatase activity
[9] = Prostate cancer, Zinc ion transport

OC[C@@H](O)[C@@H](O)CO [ERT, meso-1,2,3,4-tetrahydroxybutane]
0.97 Ω: HGERT/HG transcript SOAT1 [1] | HGERT/HG SOAT1 (Sterol O-acyltransferase 1) (Prostate cancer, Sterol metabolism)
Ψ 1.04: HGERT/HG transcript GOLGA2 [1]
Ψ 1.02: HGERT/HG transcript FBLIM1 [1] | HGERT/HG transcript FURIN [1] | HGERT/HG transcript GJC1 [1] | HGERT/HG transcript GNAI2 [1] | HGERT/HG transcript GPR124 [1] | HGERT/HG transcript LYN [1] | HGERT/HG transcript NOTCH1 [1] | HGERT/HG transcript PDCD7 [1] | HGERT/HG transcript RHOB [1] | HGERT/HG transcript ZNF318 [1] | HGERT/HG GJC1 (Gap junction protein, gamma 1, 45kDa) [3] | HGERT/HG EXTL3 (Exostoses (multiple)-like 3) [4] | HGERT/HG GCS2 (Mannosyl-oligosaccharide glucosidase) [4] | HGERT/HG BBX (Bobby sox homolog (Drosophilia)) (Prostate cancer, DNA binding) | HGERT/HG DEAF1 (Deformed epidermal autoregulatory factor 1 (Drosophila)) (Prostate cancer, DNA binding) | HGERT/HG MXD4 (MAX dimerization protein 4) (Prostate cancer, DNA binding) | HGERT/HG POLO1 (Polymerase (DNA directed), delta 1, catalytic subunit 125kDa) (Prostate cancer, DNA binding) | HGERT/HG T8RG1 (Transforming growth factor beta regulator 1) (Prostate cancer, DNA binding) | HGERT/HG UBN1 (Ubinuclein 1) (Prostate cancer, DNA binding) | HGERT/HG FBUM1 (Gene ID 54751) [6] | HGERT/HG RHOB (Ras homolog gene family, member B) [6] | HGERT/HG RHOJ (Ras homolog gene family, member J) [6]
0.99 Ω: HGERT/HG transcript DDX54 [1] | HGERT/HG transcript DYNLT1 [1] | HGERT/HG transcript ESD [1] | HGERT/HG transcript FASTKD1 [1] | HGERT/HG transcript FASTKD3 [1] | HGERT/HG transcript HLTF [1] | HGERT/HG transcript HSPE1 [1] | HGERT/HG transcript RSU1 [1] | HGERT/HG transcript SLC25A24 [1] | HGERT/HG transcript SLK [1] | HGERT/HG transcript SMOX [1] | HGERT/HG transcript SUCLA2 [1] | HGERT/HG transcript TCEAL1 [1] | HGERT/HG transcript TCF12 [1] | HGERT/HG transcript VPS4B [1] | HGERT/HG UBE2D1 (Ubiquitin-conjugating enzyme E2D1 (U8C4/5 homolog, yeast)) [2] | HGERT/HG C6orf66 (NADH dehydrogenase (ubiquinone) 1 alpha subcomplex, assembly factor 4) [3] | HGERT/HG SLC25A24 (Solute carrier family 25 (mitochondrial carrier; phosphate carrier), member 24) [3] | HGERT/HG C10orf125 (Chromosome 10 open reading frame 125) [4] | HGERT/HG GPBP1 (GC-rich promoter binding protein 1) (Prostate cancer, DNA binding) | HGERT/HG HBP1 (HMG-box transcription factor 1) (Prostate cancer, DNA binding) | HGERT/HG KIN (KIN, antigenic determinant of recA protein homolog (mouse)) (Prostate cancer, DNA binding) | HGERT/HG RABGEF1 (RAB guanine nucleotide exchange factor (GEF) 1) (Prostate cancer, DNA binding) | HGERT/HG RNF11 (Ring finger protein 11) (Prostate cancer, DNA binding) | HGERT/HG RPA3 (Replication protein A3, 14kDa) (Prostate cancer, DNA binding) | HGERT/HG TCF12 (Transcription factor 12) (Prostate cancer, DNA binding) | HGERT/HG TRIM26 (Tripartite motif-containing 26) (Prostate cancer, DNA binding) | HGERT/HG ZNFT84 (Zinc finger protein 784) (Prostate cancer, DNA binding) | HGERT/HG pdcd6 (Aryl-hydrocarbon receptor repressor) (Prostate cancer, DNA binding) | HGERT/HG RNF11 (Ring finger protein 11) [5] | HGERT/HG RSU1 (Ras suppressor protein 1) [6] | HGERT/HG COX8A (Cytochrome c oxidase subunit VIIIA (ubiquitous)) [7] | HGERT/HG MPHOSPH6 (M-phase phosphoprotein 6) [7] | HGERT/HG SMOX (Spermine oxidase) [7] | HGERT/HG TCF12 (Transcription factor 12) [7] | HGERT/HG DUSP23 (Dual specificity phosphatase 23) [8] | HGERT/HG SLC30A6 (Solute carrer family 30 (zinc transporter), member 6) [9] | HGERT/HG SLC30A9 (Solute carrer family 30 (zinc transporter), member 9) [9]
0.94 Ω: HGERT/HG CORO1A (Coronin, actin binding protein, 1A) (Prostate cancer, Actin binding)
0.98: HGERT/HG transcript MBIP [1] | HGERT/HG transcript MTM1 [1] | HGERT/HG transcript Magmas [1] | HGERT/HG transcript NAP8 [1] | HGERT/HG transcript SACM1L [1] | HGERT/HG transcript SFT2D2 [1] | HGERT/HG transcript SFXN4 [1] | HGERT/HG transcript SLC25A43 [1] | HGERT/HG transcript STXBP3 [1]
Ψ 1.03: HGERT/HG transcript DCAKD [1] | HGERT/HG transcript GSN [1] | HGERT/HG transcript MARK2 [1] | HGERT/HG transcript MYST4 [1] | HGERT/HG transcript PLEC1 [1] | HGERT/HG transcript SLC2A12 [1] | HGERT/HG PLEC1 (Plectin) (Prostate cancer, Actin binding) | HGERT/HG HNF1B (HNF1 homeobox B) (Prostate cancer, DNA binding) | HGERT/HG PIAS4 (Protein inhibitor of activated STAT, 4) (Prostate cancer, DNA binding) | HGERT/HG ZNF562 (Zinc finger protein 562) (Prostate cancer, DNA binding) | HGERT/HG PIAS4 (Protein inhibitor of activated STAT, 4) [5]
Ψ 1.00: HGERT/HG CIB1 (Calcium and integrin binding 1 (calmyrin)) [3]
Ψ 1.07: HGERT/HG transcript SAMHD1 [1]
Ψ 1.01: HGERT/HG transcript DAP [1] | HGERT/HG transcript DBT [1] | HGERT/HG transcript ENG [1] | HGERT/HG transcript FOXC1 [1] | HGERT/HG transcript HIG2 [1] | HGERT/HG transcript HPCAL1 [1] | HGERT/HG transcript KIDINS220 [1] | HGERT/HG transcript KIF1B [1] | HGERT/HG transcript LIMK1 [1] | HGERT/HG transcript NCK2 [1] | HGERT/HG transcript NDE1 [1] | HGERT/HG transcript OTUD5 [1] | HGERT/HG transcript PDIA5 [1] | HGERT/HG transcript PITRM1 [1] | HGERT/HG transcript PRRX1 [1] | HGERT/HG transcript PXN [1] | HGERT/HG transcript RPS6KA2 [1] | HGERT/HG transcript SEC31A [1] | HGERT/HG transcript SENP3 [1] | HGERT/HG transcript SESTD1 [1] | HGERT/HG transcript SH3PXD2B [1] | HGERT/HG transcript TACC1 [1] | HGERT/HG transcript TGM2 [1] | HGERT/HG transcript TIMP2 [1] | HGERT/HG transcript TXNDC11 [1] | HGERT/HG transcript USP22 [1] | HGERT/HG transcript WDFY2 [1] | HGERT/HG BMP6 (Bone morphogenetic protein 6) [2] | HGERT/HG HPCAL1 (Hippocalcin-like 1) [3] | HGERT/HG SEC31A (SEC31 homolog A (S. cerevisiae)) [3] | HGERT/HG ADAR (Adenosine deaminase, RNA-specific) (Prostate cancer, DNA binding) | HGERT/HG ATF6 (Activating transcription factor 6) (Prostate cancer, DNA binding) | HGERT/HG DBT (Dihydrolipoamide branched chain transacylase E2) (Prostate cancer, DNA binding) | HGERT/HG FOXC1 (Forkhead box C1) (Prostate cancer, DNA binding) | HGERT/HG FOXN3 (Forkhead box N3) (Prostate cancer, DNA binding) | HGERT/HG FOXP1 (Forkhead box P1) (Prostate cancer, DNA binding) | HGERT/HG GZF1 (GDNF-inducible zinc finger protein 1) (Prostate cancer, DNA binding) | HGERT/HG PCBP1 (Poly(rC) binding protein 1) (Prostate cancer, DNA binding) | HGERT/HG POLG (Polymerase (DNA directed), gamma) (Prostate cancer, DNA binding) | HGERT/HG PRRX1 (Paired related homeobox 1) (Prostate cancer, DNA binding) | HGERT/HG PUF60 (Poly-U binding splicing factor 60KDa) (Prostate cancer, DNA binding) | HGERT/HG RYBP (RING1 and YY1 binding protein) (Prostate cancer, DNA binding) | HGERT/HG SOX4 (SRY (sex determining region Y)-box 4) (Prostate cancer, DNA binding) | HGERT/HG TCF25 (Transcription factor 25 (basic helix-loop-helix)) (Prostate cancer, DNA binding) | HGERT/HG TOX4 (TOX high mobility group box family member 4) (Prostate cancer, DNA binding) | HGERT/HG TTF1 (Transcription termination factor, RNA polyrnerase 1) (Prostate cancer, DNA binding) | HGERT/HG ZBED3 (Zinc finger, BED-type containing 3) (Prostate cancer, DNA binding) | HGERT/HG ZNF232 (Zinc finger protein 232) (Prostate cancer, DNA binding) | HGERT/HG RYBP (RING1 and YY1 binding protein) [5] | HGERT/HG TTF1 (Transcription termination factor, RNA polymerase 1) [5] | HGERT/HG JUP (Junction plakoglobin) (Prostate cancer, Endothelial cell-cell adhesion) | HGERT/HG ACTN1 (Actinin, alpha 1) [6] | HGERT/HG PXN (Paxillin) [6] | HGERT/HG JUP (Junction plakaglobin) [7] | HGERT/HG PTPLAD1 (Protein tyrosine phosphatase-like A domain containing 1) [8] | HGERT/HG SLC39A13 (Solute carrer family 39 (zinc transporter), member 13) [9]
Ψ 1.05: HGERT/HG transcript HIP1 [1]
0.99: HGERT/HG transcript EID2 [1] | HGERT/HG transcript HADH [1] | HGERT/HG transcript HIATL1 [1] | HGERT/HG transcript LUC7L2 [1] | HGERT/HG transcript MFSOL [1] | HGERT/HG transcript NDUFA4 [1] | HGERT/HG transcript OXCT1 [1] | HGERT/HG transcript PHF16 [1] | HGERT/HG transcript PLCD4 [1] | HGERT/HG transcript PLEKHA3 [1] | HGERT/HG transcript RNF20 [1] | HGERT/HG transcript SAMM50 [1] | HGERT/HG transcript SCFD1 [1] | HGERT/HG transcript SEC61G [1] | HGERT/HG transcript SETD3 [1] | HGERT/HG transcript SLC30A6 [1] | HGERT/HG transcript SLC41A2 [1] | HGERT/HG transcript SNX3 [1] | HGERT/HG transcript SNX14 [1] | HGERT/HG transcript SUDS3 [1] | HGERT/HG transcript TIMM8B [1] | HGERT/HG transcript TMEM14C [1] | HGERT/HG transcript U8A3 [1] | HGERT/HG transcript VPS26A [1] | HGERT/HG transcript ZNF59B [1]
Ψ 1.06: HGERT/HG transcript SOS1 [1] | HGERT/HG SOS1 (Son of sevenless homolog 1 (Drosophila)) (Prostate cancer, DNA binding)
1.00 Ω: HGERT/HG transcript IFT20 [1] | HGERT/HG transcript MAGED1 [1] | HGERT/HG transcript VIM [1] | HGERT/HG transcript YME1L1 [1] | HGERT/HG VIM (Vimentin) [6]
0.98 Ω: HGERT/HG transcript MAP4K3 [1] | HGERT/HG transcript PAQR3 [1] | HGERT/HG transcript RP2 [1] | HGERT/HG transcript SDHD [1] | HGERT/HG transcript STK39 [1] | HGERT/HG transcript TRIT1 [1] | HGERT/HG transcript ZMYM1 [1] | HGERT/HG B4GALT4 (UDP-Gal:betaGlcNAc beta 1,4-galactosyltransferase, polypeptide 4) [4] | HGERT/HG FOXN2 (Forkhead box N2) (Prostate cancer, DNA binding) | HGERT/HG HKR1 (HKR1, GU-Kruppel zinc finger family member) (Prostate cancer, DNA binding) | HGERT/HG MRRF (Mitochondrial ribosome recycling factor) (Prostate cancer, DNA binding) | HGERT/HG POLR2K (Polymerase (RNA) II (DNA directed) polypeptide K, 7.0kDa) (Prostate cancer, DNA binding) | HGERT/HG POLR3F (Polymerase (RNA) III (DNA directed) polypeptide F, 39 kDa) (Prostate cancer, DNA binding) | HGERT/HG SARNP (SAP domain containing ribonucleoprotein) (Prostate cancer, DNA binding) | HGERT/HG ZNF83 (Zinc finger protein 83) (Prostate cancer, DNA binding) | HGERT/HG ZNF267 (Zinc finger protein 267) (Prostate cancer, DNA binding) | HGERT/HG ZNF614 (Zinc finger protein 614) (Prostate cancer, DNA binding) | HGERT/HG SDHD (Succinate dehydrogenase complex, subunit D, integral membrane protein) [7] | HGERT/HG PAQR3 (Progestin and adipoQ receptor family member III) (Prostate cancer, Receptor activity) | HGERT/HG PGRMC2 (Progesterone receptor membrane component 2) (Prostate cancer, Steroid hormone receptor activity)
Ψ 1.13: HGERT/HG transcript IFI6 [1]
0.96 Ω: HGERT/HG transcript PLEK2 [1] | HGERT/HG transcript SDHC [1]
